Laboratory results published in patent US6727237B2, “Inhibitors of bacterial NAD synthetase” (priority 1998, dated 2004).

These molecules were tested against T1, bacterial NAD synthetase enzyme (Bacillus subtilis, UniProt P08164) (assay: biochemical). Conditions: not given.
T1 sequence (P08164 2-272 limits assumed): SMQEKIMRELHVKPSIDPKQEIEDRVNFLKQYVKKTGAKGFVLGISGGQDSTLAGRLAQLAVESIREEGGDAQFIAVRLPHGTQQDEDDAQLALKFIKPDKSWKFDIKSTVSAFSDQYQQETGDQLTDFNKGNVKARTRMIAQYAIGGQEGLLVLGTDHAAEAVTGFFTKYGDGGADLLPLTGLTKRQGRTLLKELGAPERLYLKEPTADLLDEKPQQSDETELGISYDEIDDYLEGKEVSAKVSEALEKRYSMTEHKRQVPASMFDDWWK
Type: biochemical

Row | SMILES | IC50 | inhibition at 250 µM | inhibition at 200 µM | inhibition at 100 µM
1 | C[n+]1cccc(C(=O)OCCCCCCCc2cc3cc(Oc4ccccc4)ccc3[nH]2)c1 [Compound 917] | 60 µM | 88.9% |  | 
2 | C[N+](C)(C)c1ccc(CC(=O)OCCCCCCCCCn2ccc3ccccc32)cc1 [Compound 982] | 60 µM |  | 93.7% | 
3 | C[N+](C)(C)c1cccc(C(=O)OCCCCCCCc2cc3ccc(C(F)(F)F)cc3[nH]2)c1 [Compound 869] | 40 µM |  |  | 
4 | CC(=O)c1ccc2[nH]c(CCCCCCCCOC(=O)c3ccc([N+](C)(C)C)cc3)cc2c1 [Compound 894] | 50 µM |  |  | 91.1%
5 | C[n+]1cccc(CC(=O)OCCCCCCCc2cc3cc(C(=O)c4ccccc4)ccc3[nH]2)c1 [Compound 941] | 50 µM |  |  | 100%
6 | COC(=O)c1cc2cc(OCc3ccccc3)ccc2n1CCCCCCOC(=O)c1ccc[n+](C)c1 [Compound 975] | 38 µM |  |  | 55.2%
7 | C[n+]1cccc(C(=O)OCCCOc2ccc(Oc3ccccc3)cc2)c1 [Compound 1070] | 36.2 µM |  | 82% | 
8 | C[n+]1cccc(C(=O)OCCCCCCCCCn2ccc3ccccc32)c1 [Compound 970] | 55 µM |  | 96.7% | 
9 | C[N+](C)(C)c1ccc(CC(=O)OCCCCCCCCOc2ccccc2C=CC(=O)c2ccccc2)cc1 [Compound 1086] | 27.5 µM |  | 81% | 
10 | CC(C)c1ccc2[nH]c(CCCCCCCCOC(=O)c3cc[n+](C)cc3)cc2c1 [Compound 906] | 25 µM |  |  | 
11 | C[N+](C)(C)c1ccc(CC(=O)OCCCCCCCCOc2ccccc2C(N)=O)cc1 [Compound 1080] | 100 µM |  | 83% | 
12 | C[N+](C)(C)c1ccc(C(=O)OCCCCCCCc2cc3cc(Oc4ccccc4)ccc3[nH]2)cc1 [Compound 887] | 25 µM |  |  | 
13 | CC(C)c1ccc2[nH]c(CCCCCCCOC(=O)c3cccc([N+](C)(C)C)c3)cc2c1 [Compound 875] | 45 µM |  |  | 93.6%
14 | C[N+](C)(C)c1ccc(C(=O)OCCCCc2cc3cc(Oc4ccccc4)ccc3[nH]2)cc1 [Compound 886] | 80 µM |  |  | 94.5%

Same assay, conditions: NAD synthetase enzyme inhibition; read-out: IC50 of Compounds

Row | SMILES | IC50
15 | COC(=O)c1cc2cc(OCc3ccccc3)ccc2n1CCCCCCCOC(=O)c1ccc(CN(C)C)cc1 [Compound 1096] | 68.9 µM

Same assay, conditions: compound at 0.1 mM (Table 314)

Row | SMILES | % Inhibition
16 | O=[N+]([O-])c1ccc2[nH]c(CCCCC[n+]3ccccc3)cc2c1 [Compound 332] | 12.27%
17 | c1ccc(-c2ccc3[nH]c(CCCC[n+]4ccc5ccccc5c4)cc3c2)cc1 [Compound 541] | 10.26%
18 | CCCCc1ccc2[nH]c(CCCC[n+]3ccccc3)cc2c1 [Compound 313] | 27.37%
19 | O=C(OCCCCCCn1ccc2ccccc21)c1cccnc1 [Compound 943] | 21.38%
20 | COC(=O)c1cc2cc(OCc3ccccc3)ccc2n1CCCCCCCCOC(=O)Cc1ccc([N+](C)(C)C)cc1 [Compound 989] | 54.83%

Same assay, conditions: compound at 0.2 mM (Table 312A)

Row | SMILES | % Inhibition
21 | Fc1cc(F)c2[nH]c(CCCCC[n+]3ccccc3)cc2c1 [Compound 302] | 21.48%
22 | c1ccc2c[n+](CCCCCCCc3cc4ccccc4[nH]3)ccc2c1 [Compound 502] | 44.08%
23 | COc1ccc2[nH]c(CCCCCCC[n+]3ccc4ccccc4c3)cc2c1 [Compound 592] | 18.70%
24 | Cc1ccc2[nH]c(CCCC[n+]3ccc4ccccc4c3)cc2c1 [Compound 511] | 11.02%
25 | O=C(O)c1ccc2[nH]c(CCCCCCCC[n+]3ccccc3)cc2c1 [Compound 389] | 12.44%
26 | O=C(c1ccccc1)c1ccc2[nH]c(CCCCCCC[n+]3ccc4ccccc4c3)cc2c1 [Compound 574] | 11.95%
27 | FC(F)(F)c1ccc2[nH]c(CCCCCCCC[n+]3cccc4ccccc43)cc2c1 [Compound 473] | 15.06%
28 | COc1ccc2[nH]c(CCCCCC[n+]3ccc4ccccc4c3)cc2c1 [Compound 591] | 18.59%
29 | Cc1ccc2[nH]c(CCCCCCCC[n+]3ccc4ccccc4c3)cc2c1 [Compound 515] | 30.39%
30 | COc1ccc2[nH]c(CCCCCCC[n+]3cccc4ccccc43)cc2c1 [Compound 484] | 39.95%
31 | Fc1ccc2[nH]c(CCCCCCCC[n+]3ccc4ccccc4c3)cc2c1 [Compound 563] | 22.68%
32 | c1ccc(C(c2ccccc2)(c2ccccc2)c2ccc3[nH]c(CCCCCC[n+]4ccc5ccccc5c4)cc3c2)cc1 [Compound 555] | 30.89%
33 | O=[N+]([O-])c1cc([N+](=O)[O-])c2[nH]c(CCC[n+]3ccc4ccccc4c3)cc2c1 [Compound 522] | 35.74%
34 | C[n+]1cccc(C(=O)OCCCCCCn2ccc3ccccc32)c1 [Compound 967] | 19.51%
35 | O=[N+]([O-])c1cc([N+](=O)[O-])c2[nH]c(CCCCCCCC[n+]3cccc4ccccc43)cc2c1 [Compound 419] | 24.28%
36 | O=C(O)c1ccc2[nH]c(CCCCCCC[n+]3ccccc3)cc2c1 [Compound 388] | 25.86%
37 | O=[N+]([O-])c1cc([N+](=O)[O-])c2[nH]c(CCCC[n+]3ccccc3)cc2c1 [Compound 307] | 4.40%

Row | SMILES | % Inhibition
38 | Fc1cc(F)c2[nH]c(CCCCCCC[n+]3ccc4ccccc4c3)cc2c1 [Compound 520] | 55.83%
39 | O=C(c1ccccc1)c1ccc2[nH]c(CCCCCCC[n+]3ccccc3)cc2c1 [Compound 358] | 23.19%
40 | c1ccc(C(c2ccccc2)(c2ccccc2)c2ccc3[nH]c(CCCCCCC[n+]4cccc5ccccc54)cc3c2)cc1 [Compound 448] | 2.92%
41 | CC(=O)c1ccc2[nH]c(CCC[n+]3ccc4ccccc4c3)cc2c1 [Compound 582] | 6.13%
42 | FC(F)(F)c1ccc2cc(CCCC[n+]3ccccc3)[nH]c2c1 [Compound 289] | 9.28%
43 | CCCCc1ccc2[nH]c(CCCCCCCC[n+]3cccc4ccccc43)cc2c1 [Compound 425] | 19.12%
44 | O=[N+]([O-])c1ccc2[nH]c(CCCC[n+]3ccccc3)cc2c1 [Compound 712] | 12.59%
45 | COc1ccc2c(ccn2CCCCOC(=O)c2ccc[n+](C)c2)c1 [Compound 760] | 2.28%
46 | FC(F)(F)c1ccc2cc(CCCC[n+]3ccc4ccccc4c3)[nH]c2c1 [Compound 505] | 25.51%
47 | COC(=O)c1ccc2[nH]c(CCC[n+]3ccc4ccccc4c3)cc2c1 [Compound 594] | 2.77%
48 | Fc1ccc2[nH]c(CCC[n+]3ccc4ccccc4c3)cc2c1 [Compound 558] | 1.27%
49 | O=[N+]([O-])c1ccc2c(ccn2CCCCCCCC[n+]2ccccc2)c1 [Compound 6] | 5.67%
50 | Cc1ccc2[nH]c(CCCCCCCC[n+]3cccc4ccccc43)cc2c1 [Compound 407] | 24.14%
51 | C[N+](C)(C)c1ccc(CC(=O)OCCCCCCn2ccc3ccccc32)cc1 [Compound 979] | 38.72%
52 | O=C(c1ccccc1)c1ccc2[nH]c(CCCCCCCC[n+]3cccc4ccccc43)cc2c1 [Compound 467] | 15.08%
53 | Fc1cc(F)c2[nH]c(CCCC[n+]3ccccc3)cc2c1 [Compound 301] | 6.12%

Same assay, conditions: compound at 0.2 mM (Table 312B)

Row | SMILES | % Inhibition
54 | O=C(OCCCCCCCCOc1cccc(N2CCOCC2)c1)c1cccnc1 [Compound 1018] | 17%
55 | CC(=O)c1cccc(OCCCCCCCCOC(=O)Cc2ccc([N+](C)(C)C)cc2)c1 [Compound 1089] | 56%
56 | C[n+]1cccc(C(=O)OCCCCCCCCOc2ccc(C=CC(=O)c3ccccc3)cc2)c1 [compound 1063] | 32%
57 | COc1ccccc1OCCCCCCCCOC(=O)Cc1ccc(N(C)C)cc1 [Compound 1039] | 30%
58 | COC(=O)c1cc2cc(OCc3ccccc3)ccc2n1CCCCCCCOC(=O)c1ccc(CN(C)C)cc1 [Compound 1096] | 140%
59 | CC(=O)c1ccc(OCCCCCCCCOC(=O)c2ccc[n+](C)c2)cc1 [compound 1058] | 18%
60 | CN(C)c1ccc(CC(=O)OCCCCCCCCOc2ccccc2C=CC(=O)c2ccccc2)cc1 [Compound 1038] | 22%
61 | C[n+]1cccc(C(=O)OCCCCCCCCOc2ccc(OC(=O)c3ccccc3)cc2)c1 [compound 1062] | 18%
62 | CN(C)c1ccc(CC(=O)OCCCCCCCCOc2ccc(C=CC(=O)c3ccccc3)cc2)cc1 [Compound 1034] | 30%
63 | C[N+](C)(C)c1ccc(CC(=O)OCCCCCCCCOc2ccc(C(=O)c3ccccc3)cc2)cc1 [Compound 1088] | 100%
64 | C[n+]1cccc(C(=O)OCCCCCCCCOc2ccccc2[N+](=O)[O-])c1 [compound 1055] | 46%
65 | O=C(OCCCCCCCCOc1ccc(C(=O)c2ccccc2)cc1)c1cccnc1 [Compound 1013] | 29%
66 | CC(=O)N1CCN(c2ccc(OCCCCCCCCOC(=O)Cc3ccc(N(C)C)cc3)cc2)CC1 [Compound 1025] | 15%

Same assay, conditions: compound at 0.25 mM

Row | SMILES | % Inhibition
67 | C[n+]1cccc(C(=O)OCCCCCCCCc2cc3cc(C(=O)c4ccccc4)ccc3[nH]2)c1 [Compound 927] | 93.1%
68 | C[N+](C)(C)c1cccc(C(=O)OCCCCCCCCc2cc3cc(Oc4ccccc4)ccc3[nH]2)c1 [Compound 873] | 98.0%
69 | C[n+]1cccc(CC(=O)OCCCCCCCCc2cc3ccc(C(F)(F)F)cc3[nH]2)c1 [Compound 930] | 96.7%
70 | CC(=O)c1ccc2[nH]c(CCCCCCCOC(=O)Cc3ccc[n+](C)c3)cc2c1 [Compound 938] | 98.8%
71 | CC(=O)c1ccc2[nH]c(CCCCOC(=O)Cc3ccc[n+](C)c3)cc2c1 [Compound 937] | 88.8%
72 | C[N+](C)(C)c1cccc(C(=O)OCCCCCCCCc2cc3ccc(C(F)(F)F)cc3[nH]2)c1 [Compound 870] | 63.1%
73 | C[n+]1cccc(C(=O)OCCCCCCCCc2cc3ccc(C(F)(F)F)cc3[nH]2)c1 [Compound 915] | 95.7%
